Experimental findings from patent US9592221B2, “Antibacterial agents: aryl myxopyronin derivatives” (priority 2012, dated 2017) are described below.

pIC50: −log10 of the molar value. Where only a bound is given, the exact number is not on record here.

In assay [1] the target is E. coli RNA polymerase σ^70 holoenzyme (Escherichia coli, UniProt P0A8T7+P0A8V2). Briefly: Fluorescence-detected RNA polymerase assay, E. coli RNA polymerase. Particulars: read-out: IC50 E. coli RNAP. The class given is biochemical.
Chain of E. coli RNA polymerase σ^70 holoenzyme (P0A8T7 whole entry): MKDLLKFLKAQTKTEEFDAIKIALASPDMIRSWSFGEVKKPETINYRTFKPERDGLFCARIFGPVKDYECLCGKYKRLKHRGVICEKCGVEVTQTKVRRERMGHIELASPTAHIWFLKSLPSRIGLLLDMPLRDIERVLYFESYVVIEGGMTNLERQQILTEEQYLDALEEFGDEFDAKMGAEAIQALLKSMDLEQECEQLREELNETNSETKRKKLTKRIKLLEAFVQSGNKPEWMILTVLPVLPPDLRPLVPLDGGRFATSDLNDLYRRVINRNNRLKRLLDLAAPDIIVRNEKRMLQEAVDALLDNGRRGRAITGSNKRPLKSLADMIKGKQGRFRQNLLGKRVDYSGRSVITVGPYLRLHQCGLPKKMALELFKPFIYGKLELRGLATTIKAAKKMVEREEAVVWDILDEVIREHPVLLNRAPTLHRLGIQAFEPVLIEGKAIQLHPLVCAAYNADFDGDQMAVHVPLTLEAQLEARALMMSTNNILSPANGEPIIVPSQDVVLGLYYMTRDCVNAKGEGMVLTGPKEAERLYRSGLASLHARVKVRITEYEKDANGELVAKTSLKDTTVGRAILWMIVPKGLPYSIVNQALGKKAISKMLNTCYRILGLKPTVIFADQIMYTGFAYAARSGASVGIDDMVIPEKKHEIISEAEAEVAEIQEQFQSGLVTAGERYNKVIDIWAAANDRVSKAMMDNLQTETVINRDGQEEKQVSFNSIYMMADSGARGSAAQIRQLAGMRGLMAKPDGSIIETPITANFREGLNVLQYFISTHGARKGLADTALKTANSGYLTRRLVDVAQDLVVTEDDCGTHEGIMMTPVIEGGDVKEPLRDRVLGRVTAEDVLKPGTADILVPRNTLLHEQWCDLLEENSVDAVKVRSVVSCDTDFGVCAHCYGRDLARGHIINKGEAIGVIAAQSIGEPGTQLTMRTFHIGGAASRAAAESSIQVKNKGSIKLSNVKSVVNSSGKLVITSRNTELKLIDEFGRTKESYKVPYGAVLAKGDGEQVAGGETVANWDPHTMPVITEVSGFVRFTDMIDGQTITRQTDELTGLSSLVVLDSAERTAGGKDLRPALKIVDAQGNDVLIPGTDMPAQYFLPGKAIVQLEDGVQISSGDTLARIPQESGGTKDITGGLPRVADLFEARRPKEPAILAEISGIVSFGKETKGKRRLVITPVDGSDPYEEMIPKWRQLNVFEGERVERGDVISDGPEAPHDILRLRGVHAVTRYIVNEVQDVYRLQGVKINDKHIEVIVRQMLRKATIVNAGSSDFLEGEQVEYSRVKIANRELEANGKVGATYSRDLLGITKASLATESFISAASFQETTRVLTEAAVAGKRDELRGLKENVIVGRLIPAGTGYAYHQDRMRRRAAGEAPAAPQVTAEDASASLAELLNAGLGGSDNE
Chain of E. coli RNA polymerase σ^70 holoenzyme (P0A800 whole entry, further chain): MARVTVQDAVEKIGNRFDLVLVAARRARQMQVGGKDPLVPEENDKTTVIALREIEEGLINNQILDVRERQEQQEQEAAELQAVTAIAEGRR
Chain of E. coli RNA polymerase σ^70 holoenzyme (P0A8V2 whole entry): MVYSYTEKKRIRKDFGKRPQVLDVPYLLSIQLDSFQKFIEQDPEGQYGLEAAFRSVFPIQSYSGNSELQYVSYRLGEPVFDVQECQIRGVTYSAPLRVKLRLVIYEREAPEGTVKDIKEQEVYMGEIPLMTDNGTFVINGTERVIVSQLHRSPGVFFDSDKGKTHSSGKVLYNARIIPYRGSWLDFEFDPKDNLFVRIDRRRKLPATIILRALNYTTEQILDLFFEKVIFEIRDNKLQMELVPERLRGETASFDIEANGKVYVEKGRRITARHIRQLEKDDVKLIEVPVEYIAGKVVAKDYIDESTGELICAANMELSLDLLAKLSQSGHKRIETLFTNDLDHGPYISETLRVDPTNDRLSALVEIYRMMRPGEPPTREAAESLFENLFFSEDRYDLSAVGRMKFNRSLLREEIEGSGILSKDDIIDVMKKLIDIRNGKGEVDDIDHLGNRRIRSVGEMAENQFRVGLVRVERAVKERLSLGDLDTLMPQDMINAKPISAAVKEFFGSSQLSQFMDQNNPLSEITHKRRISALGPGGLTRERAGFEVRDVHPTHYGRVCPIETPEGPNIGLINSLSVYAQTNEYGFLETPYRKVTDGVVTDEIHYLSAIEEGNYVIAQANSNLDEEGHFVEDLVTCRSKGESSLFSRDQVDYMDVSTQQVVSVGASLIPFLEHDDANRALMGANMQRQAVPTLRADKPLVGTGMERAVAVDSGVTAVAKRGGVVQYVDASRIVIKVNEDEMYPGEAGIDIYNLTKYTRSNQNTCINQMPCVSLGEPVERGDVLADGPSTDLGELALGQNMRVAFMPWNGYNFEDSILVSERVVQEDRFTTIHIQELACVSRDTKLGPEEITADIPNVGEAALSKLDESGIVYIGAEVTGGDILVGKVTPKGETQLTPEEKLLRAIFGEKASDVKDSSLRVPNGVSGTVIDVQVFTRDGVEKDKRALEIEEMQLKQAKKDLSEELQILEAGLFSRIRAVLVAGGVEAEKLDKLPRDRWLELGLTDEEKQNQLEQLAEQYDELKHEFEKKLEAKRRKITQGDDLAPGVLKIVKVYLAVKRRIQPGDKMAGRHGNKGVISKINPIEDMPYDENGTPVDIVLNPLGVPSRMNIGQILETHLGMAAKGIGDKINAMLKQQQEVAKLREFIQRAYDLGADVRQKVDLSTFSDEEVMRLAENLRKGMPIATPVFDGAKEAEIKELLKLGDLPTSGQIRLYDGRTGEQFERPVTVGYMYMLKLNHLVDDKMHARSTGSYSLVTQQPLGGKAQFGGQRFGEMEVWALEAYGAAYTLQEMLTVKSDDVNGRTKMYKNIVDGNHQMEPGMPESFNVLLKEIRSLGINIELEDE
Chain of E. coli RNA polymerase σ^70 holoenzyme (P00579 whole entry, further chain): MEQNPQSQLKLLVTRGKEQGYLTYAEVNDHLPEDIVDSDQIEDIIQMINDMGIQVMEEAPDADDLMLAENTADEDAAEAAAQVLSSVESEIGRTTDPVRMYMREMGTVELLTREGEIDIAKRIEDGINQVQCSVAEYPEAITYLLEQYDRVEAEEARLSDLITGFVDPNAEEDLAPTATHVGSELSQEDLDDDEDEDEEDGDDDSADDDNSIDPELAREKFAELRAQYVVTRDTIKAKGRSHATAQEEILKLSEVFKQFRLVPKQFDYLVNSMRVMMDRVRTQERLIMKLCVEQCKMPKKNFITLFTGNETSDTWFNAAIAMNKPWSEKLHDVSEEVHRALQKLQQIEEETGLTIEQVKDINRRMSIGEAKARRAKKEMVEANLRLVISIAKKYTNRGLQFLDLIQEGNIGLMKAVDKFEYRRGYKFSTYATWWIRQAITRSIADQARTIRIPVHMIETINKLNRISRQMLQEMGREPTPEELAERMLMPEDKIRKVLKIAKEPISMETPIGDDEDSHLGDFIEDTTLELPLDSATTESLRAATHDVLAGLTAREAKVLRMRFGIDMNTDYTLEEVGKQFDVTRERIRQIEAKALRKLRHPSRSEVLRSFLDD
Chain of E. coli RNA polymerase σ^70 holoenzyme (P0A7Z4 whole entry, further chain): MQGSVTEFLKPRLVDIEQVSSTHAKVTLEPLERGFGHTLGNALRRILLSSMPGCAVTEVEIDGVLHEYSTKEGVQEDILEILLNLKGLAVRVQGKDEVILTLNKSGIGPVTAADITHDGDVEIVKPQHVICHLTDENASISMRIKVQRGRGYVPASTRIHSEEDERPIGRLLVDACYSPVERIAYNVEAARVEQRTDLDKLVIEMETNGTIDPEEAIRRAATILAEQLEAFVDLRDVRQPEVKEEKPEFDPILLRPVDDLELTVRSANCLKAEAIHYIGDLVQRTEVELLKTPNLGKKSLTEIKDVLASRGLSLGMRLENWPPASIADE
Assay [2] deals with Staphylococcus aureus ATCC 12600. Briefly: MIC, spiral gradient endpoint assay, S. aureus ATCC 12600. The class given is cell-based. To be noted: ATCC12600; Staphylococcus aureus ATCC 12600.
In assay [3] the test system is Acinetobacter baumannii ATCC 19606. Briefly: MIC, spiral gradient endpoint assay, A. baumannii. Particulars: ATCC19606; Acinetobacter baumannii ATCC 19606. The assay is classed as cell-based.
Assay [4] deals with Escherichia coli D21f2tolC. The experiment in a line: MIC, spiral gradient endpoint assay, E. coli D21f2tolC. The class given is cell-based. To be noted: Escherichia coli, D21F2TOLC, read-out: MIC E. coli D21f2toIC.
Assay [5] has as its system Mycobacterium tuberculosis H37Rv. Briefly: MIC, microplate Alamar Blue assay, M. tuberculosis. The assay is classed as cell-based.
In assay [6] the test system is Bacillus anthracis Vollum 1b. Briefly: microbe, parasite or virus in culture. The assay is classed as cell-based. Particulars: Bacillus anthracis, VOLLUM1B, read-out: MIC B. anthracis Vollum-1b.
Assay [7] relates to Francisella tularensis SCHU4. The experiment in a line: microbe, parasite or virus in culture. Particulars: Francisella tularensis, SCHU4, read-out: MIC F. tularensis SCHU4. The class given is cell-based.
Another assay concerns Yersinia pestis C092. The experiment in a line: microbe, parasite or virus in culture. To be noted: Yersinia pestis, C092, read-out: MIC Y. pestis C092. The assay is classed as cell-based.
The subject of the next assay is Burkholderia mallei CHN7. Briefly: microbe, parasite or virus in culture. Particulars: Burkholderia mallei, CHN7, read-out: MIC B. mallei CHN7. The assay is classed as cell-based.
Assay [8] has as its system Burkholderia pseudomallei Human/Blood/OH/US/1994. Briefly: microbe, parasite or virus in culture. The class given is cell-based. To be noted: Burkholderia pseudomallei, read-out: MIC B. pseudomallei Human/Blood/OH.
The test system of the next assay is Brucella melitensis 16M. The experiment in a line: microbe, parasite or virus in culture. The class given is cell-based. To be noted: Brucella melitensis, 16M, read-out: MIC B. melitensis 16M.

Take `COC(=O)N/C=C/CCC(C)c1cc(O)c(C(=O)C(C)=Cc2ccc(CC3CC3)s2)c(=O)o1` (mixture of isomers) [APY125, methyl ((1E)-5-(3-(3-(5-(cyclopropylmethyl)thiophen-2-yl)-2-methylacryloyl)-4-hydroxy-2-oxo-2H-pyran-6-yl)hex-1-en-1-yl)carbamate]: the pIC50 (in general, the negative decadic logarithm of the IC50, by convention in mol/L) in [1] is 7.40. In addition, the MIC was 1 µg/mL in assay [2]; 20 µg/mL in assay [3]; 0.6 µg/mL in [4]; 10 µg/mL in assay [5]; 6 µg/mL in assay [6]; more than 50 µg/mL in assay [7]. For the same compound, the MIC in the assay on Yersinia pestis C092 is 6 µg/mL; in the assay on Burkholderia mallei CHN7, 10 µg/mL; in [8] it was 50 µg/mL; in the assay with Brucella melitensis 16M, 6 µg/mL.
For `COC(=O)N/C=C/CCC(C)c1cc(O)c(C(=O)C(C)=Cc2ccc(OCCC(F)(F)F)cc2)c(=O)o1` (mixture of isomers) [APY126, methyl ((1E)-5-(4-hydroxy-3-(2-methyl-3-(4-(3,3,3-trifluoropropoxy)phenyl)acryloyl)-2-oxo-2H-pyran-6-yl)hex-1-en-1-yl)carbamate], the pIC50 in assay [1] is 7.10. Besides, the MIC in assay [2] was 1 µg/mL; in assay [3] it was more than 40 µg/mL; in assay [4], 0.3 µg/mL; in assay [5] it was 6 µg/mL; in assay [6], 3 µg/mL; in [7], more than 50 µg/mL. Further, the MIC with Yersinia pestis C092 is 30 µg/mL; in the assay with Burkholderia mallei CHN7, 50 µg/mL; in assay [8], more than 50 µg/mL; in the assay with Brucella melitensis 16M, 10 µg/mL.
As for `COC(=O)N/C=C/CCC(C)c1cc(O)c(C(=O)C(C)=Cc2ccc(CCC(F)(F)F)cc2C)c(=O)o1` (mixture of isomers) [APY127, methyl ((1E)-5-(4-hydroxy-3-(2-methyl-3-(2-methyl-4-(3,3,3-trifluoropropyl)phenyl)acryloyl)-2-oxo-2H-pyran-6-yl)hex-1-en-1-yl)carbamate], the pIC50 in assay [1] was 7.15. For the same compound, the MIC in [2] is 2 µg/mL; in assay [3], more than 40 µg/mL; in [4], 0.4 µg/mL; in [5], 50 µg/mL; in assay [6], 6 µg/mL; in assay [7] it was more than 50 µg/mL. The MIC (in the assay with Yersinia pestis C092; in the assay on Burkholderia mallei CHN7; in assay [8]; with Brucella melitensis 16M) was 50 µg/mL throughout.
For `CCCOc1ccc(C=C(C)C(=O)c2c(O)cc(C(C)CC/C=C/NC(=O)OC)oc2=O)c(C)c1` (mixture of isomers) [APY128, methyl ((1E)-5-(4-hydroxy-3-(2-methyl-3-(2-methyl-4-propoxyphenyl)acryloyl)-2-oxo-2H-pyran-6-yl)hex-1-en-1-yl)carbamate], the pIC50 in [1] was 6.30. The MIC is 4 µg/mL in assay [2]; more than 40 µg/mL in assay [3]; 0.6 µg/mL in [4]; 30 µg/mL in [5]; 10 µg/mL in assay [6]; more than 50 µg/mL in assay [7]. Further, the MIC (with Yersinia pestis C092; in the assay on Burkholderia mallei CHN7; in [8]; in the assay on Brucella melitensis 16M) was more than 50 µg/mL each time.
Regarding `CCCCOc1ccc(C=C(C)C(=O)c2c(O)cc(C(C)CC/C=C/NC(=O)OC)oc2=O)c(C)c1` (mixture of isomers) [APY129, methyl ((1E)-5-(3-(3-(4-butoxy-2-methylphenyl)-2-methylacryloyl)-4-hydroxy-2-oxo-2H-pyran-6-yl)hex-1-en-1-yl)carbamate], the negative logarithm of the IC50 (pIC50) in assay [1] was 7.30. Further, the MIC in assay [2] was 2 µg/mL; in assay [3], 40 µg/mL; in [4], 0.3 µg/mL; in assay [5] it was 30 µg/mL; in assay [6] it was 3 µg/mL; in assay [7], more than 50 µg/mL. Moreover, the MIC with Yersinia pestis C092 is 30 µg/mL; in the assay with Burkholderia mallei CHN7, 50 µg/mL; in assay [8], more than 50 µg/mL; with Brucella melitensis 16M, 10 µg/mL.
Regarding `COC(=O)N/C=C/CCC(C)c1cc(O)c(C(=O)C(C)=Cc2ccc(OC(C)C)cc2C)c(=O)o1` (mixture of isomers) [APY130, methyl ((1E)-5-(4-hydroxy-3-(3-(4-isopropoxy-2-methylphenyl)-2-methylacryloyl)-2-oxo-2H-pyran-6-yl)hex-1-en-1-yl)carbamate], the negative-log IC50 (pIC50) in [1] is 6.70. Moreover, the MIC was 3 µg/mL in assay [2]; more than 40 µg/mL in assay [3]; 2 µg/mL in [4]; 30 µg/mL in [5]; 10 µg/mL in assay [6]; more than 50 µg/mL in assay [7]. Further, the MIC (in the assay on Yersinia pestis C092; in the assay with Burkholderia mallei CHN7; in assay [8]; in the assay with Brucella melitensis 16M) was more than 50 µg/mL throughout.
For the compound `COC(=O)N/C=C/CCC(C)c1cc(O)c(C(=O)C(C)=Cc2ccc(OCC(F)F)cc2C)c(=O)o1` (mixture of isomers) [APY131, methyl ((1E)-5-(3-(3-(4-(2,2-difluoroethoxy)-2-methylphenyl)-2-methylacryloyl)-4-hydroxy-2-oxo-2H-pyran-6-yl)hex-1-en-1-yl)carbamate], the pIC50 in assay [1] is 6.70. Besides, the MIC was 8 µg/mL in assay [2]; more than 40 µg/mL in [3]; 0.7 µg/mL in [4]; 30 µg/mL in [5]; 30 µg/mL in assay [6]; more than 50 µg/mL in assay [7]. Also, the MIC (in the assay with Yersinia pestis C092; in the assay on Burkholderia mallei CHN7; in assay [8]; in the assay on Brucella melitensis 16M) was more than 50 µg/mL each time.
Regarding `COC(=O)N/C=C/CCC(C)c1cc(O)c(C(=O)C(C)=Cc2ccc(OCC(F)F)cc2)c(=O)o1` (mixture of isomers) [APY132, methyl ((1E)-5-(3-(3-(4-(2,2-difluoroethoxy)phenyl)-2-methylacryloyl)-4-hydroxy-2-oxo-2H-pyran-6-yl)hex-1-en-1-yl)carbamate], the pIC50 in assay [1] was 6.70. In addition, the MIC in assay [2] was 5 µg/mL; in assay [3] it was more than 40 µg/mL; in assay [4], 0.7 µg/mL; in assay [5], 10 µg/mL; in [6], 30 µg/mL; in [7] it was more than 50 µg/mL. Also, the MIC in the assay with Yersinia pestis C092 was more than 50 µg/mL; in the assay on Burkholderia mallei CHN7, more than 50 µg/mL; in assay [8], more than 50 µg/mL; in the assay on Brucella melitensis 16M, 30 µg/mL.
In the case of `CCCCc1ncc(C=C(C)C(=O)c2c(O)cc(C(C)CC/C=C/NC(=O)OC)oc2=O)s1` (mixture of isomers) [APY136, methyl ((1E)-5-(3-(3-(2-butylthiazol-5-yl)-2-methylacryloyl)-4-hydroxy-2-oxo-2H-pyran-6-yl)hex-1-en-1-yl)carbamate], in assay [1], the pIC50 is 7.70. The MIC in [2] is 1 µg/mL; in [3] it was more than 40 µg/mL; in assay [4] it was 0.2 µg/mL; in [5] it was 6 µg/mL; in assay [6], 10 µg/mL; in assay [7] it was more than 50 µg/mL. Besides, the MIC with Yersinia pestis C092 came to 10 µg/mL; with Burkholderia mallei CHN7, 30 µg/mL; in assay [8] it was 50 µg/mL; in the assay on Brucella melitensis 16M it was 6 µg/mL.
For the compound `COC(=O)N/C=C/CCC(C)c1cc(O)c(C(=O)C(C)=Cc2cnc(CCC(C)C)s2)c(=O)o1` (mixture of isomers) [APY137, methyl ((1E)-5-(4-hydroxy-3-(3-(2-isopentylthiazol-5-yl)-2-methylacryloyl)-2-oxo-2H-pyran-6-yl)hex-1-en-1-yl)carbamate], the pIC50 in assay [1] is 8.00. Also, the MIC was 1 µg/mL in assay [2]; more than 40 µg/mL in [3]; 0.08 µg/mL in assay [4]; 6 µg/mL in assay [5]; 3 µg/mL in [6]; 50 µg/mL in [7]. The MIC is 10 µg/mL in the assay with Yersinia pestis C092, 10 µg/mL in the assay on Burkholderia mallei CHN7, 30 µg/mL in assay [8] and 6 µg/mL in the assay on Brucella melitensis 16M.
